Values of other authors as cited in US20040191328A1, “Combination of gallium compounds with nonchemotherapeutic anticancer agents in the treatment of neoplasia” (priority 2002, published 2004).

Experiments:
[1] = increased exposure secondary to decreased clearance

dose reduction of paclitaxel and doxorubicin needed to achieve equivalent myelosuppression [1] [fold] | SMILES | concentration at which growth inhibition occurs (cells in vitro; chronic exposure, low concentrations) [µg/mL] | concentration inducing both cellular cytotoxicity and inhibition of growth (cells in vitro; exposure of duration longer than 24 hours) [µg/mL]
 | O=[N+]([O-])[O-].O=[N+]([O-])[O-].O=[N+]([O-])[O-].[Ga+3] [Gallium nitrate, gallium nitrate] | 10 | > 50
2 | C/C=C/C[C@@H](C)C(=O)[C@H]1C(=O)N[C@@H](C(C)C)C(=O)N(C)CC(=O)N(C)[C@@H](CC(C)C)C(=O)N[C@@H](C(C)C)C(=O)N(C)[C@@H](CC(C)C)C(=O)N[C@@H](C)C(=O)N[C@H](C)C(=O)N(C)[C@@H](CC(C)C)C(=O)N(C)[C@@H](CC(C)C)C(=O)N(C)[C@@H](C(C)C)C(=O)N1C [PSC 833] |  | 
